Our source for the inhibition values is ChEMBL document CHEMBL5653615 (J Biol Chem, 2013).

Each structure is given as a SMILES string.

The target in experiment [1] is T1, Tyrosine-protein kinase receptor TYRO3 (Homo sapiens) (UniProt Q06418).
T1 sequence (whole entry): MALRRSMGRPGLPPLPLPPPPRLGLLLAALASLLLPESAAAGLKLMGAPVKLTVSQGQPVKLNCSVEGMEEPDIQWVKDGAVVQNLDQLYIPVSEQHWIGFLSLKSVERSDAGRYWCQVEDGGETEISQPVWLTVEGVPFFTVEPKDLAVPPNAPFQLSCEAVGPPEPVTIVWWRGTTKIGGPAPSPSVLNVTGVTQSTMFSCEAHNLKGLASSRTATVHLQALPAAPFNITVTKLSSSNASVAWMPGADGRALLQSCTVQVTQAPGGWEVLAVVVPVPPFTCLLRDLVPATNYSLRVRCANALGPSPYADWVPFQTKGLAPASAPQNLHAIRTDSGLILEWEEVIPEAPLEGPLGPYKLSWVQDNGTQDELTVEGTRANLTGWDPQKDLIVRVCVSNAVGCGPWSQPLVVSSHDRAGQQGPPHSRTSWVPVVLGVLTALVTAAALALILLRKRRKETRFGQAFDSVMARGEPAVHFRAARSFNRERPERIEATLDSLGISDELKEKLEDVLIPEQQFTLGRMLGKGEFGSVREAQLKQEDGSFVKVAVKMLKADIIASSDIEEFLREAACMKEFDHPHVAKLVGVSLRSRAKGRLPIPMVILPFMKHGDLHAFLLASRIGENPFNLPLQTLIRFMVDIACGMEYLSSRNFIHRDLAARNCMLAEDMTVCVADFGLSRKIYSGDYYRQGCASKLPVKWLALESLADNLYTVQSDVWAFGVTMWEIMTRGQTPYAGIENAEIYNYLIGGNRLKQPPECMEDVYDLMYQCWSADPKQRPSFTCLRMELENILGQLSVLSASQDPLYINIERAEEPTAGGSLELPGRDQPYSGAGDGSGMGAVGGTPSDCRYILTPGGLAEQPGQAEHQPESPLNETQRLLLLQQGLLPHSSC
Briefly: Inhibition of human SKY at 1.82 nM by HotSpot assay relative to control.

The target in experiment [2] is T2, Serine/threonine-protein kinase A-Raf (Homo sapiens) (UniProt P10398).
T2 sequence (whole entry): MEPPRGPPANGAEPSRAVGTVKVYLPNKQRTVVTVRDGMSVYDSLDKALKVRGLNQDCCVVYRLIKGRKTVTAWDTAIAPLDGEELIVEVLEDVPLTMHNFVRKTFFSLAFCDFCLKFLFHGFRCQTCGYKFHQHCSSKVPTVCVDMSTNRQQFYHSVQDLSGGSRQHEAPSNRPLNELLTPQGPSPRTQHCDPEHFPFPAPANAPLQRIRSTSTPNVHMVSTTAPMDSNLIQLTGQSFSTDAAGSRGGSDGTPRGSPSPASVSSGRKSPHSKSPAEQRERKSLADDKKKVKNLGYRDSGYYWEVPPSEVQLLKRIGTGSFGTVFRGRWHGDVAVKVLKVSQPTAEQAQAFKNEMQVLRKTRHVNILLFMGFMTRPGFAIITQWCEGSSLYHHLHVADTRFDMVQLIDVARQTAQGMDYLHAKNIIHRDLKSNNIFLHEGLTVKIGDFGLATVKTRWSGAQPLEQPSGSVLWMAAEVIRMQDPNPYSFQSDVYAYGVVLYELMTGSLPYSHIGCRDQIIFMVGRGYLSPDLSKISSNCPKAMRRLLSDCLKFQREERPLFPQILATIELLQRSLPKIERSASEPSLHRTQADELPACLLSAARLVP
Briefly: Inhibition of human ARAF at 18.6 nM by HotSpot assay relative to control.

Experiment [3] deals with T3, Serine/threonine-protein kinase Nek2 (Homo sapiens) (UniProt P51955).
T3 sequence (whole entry): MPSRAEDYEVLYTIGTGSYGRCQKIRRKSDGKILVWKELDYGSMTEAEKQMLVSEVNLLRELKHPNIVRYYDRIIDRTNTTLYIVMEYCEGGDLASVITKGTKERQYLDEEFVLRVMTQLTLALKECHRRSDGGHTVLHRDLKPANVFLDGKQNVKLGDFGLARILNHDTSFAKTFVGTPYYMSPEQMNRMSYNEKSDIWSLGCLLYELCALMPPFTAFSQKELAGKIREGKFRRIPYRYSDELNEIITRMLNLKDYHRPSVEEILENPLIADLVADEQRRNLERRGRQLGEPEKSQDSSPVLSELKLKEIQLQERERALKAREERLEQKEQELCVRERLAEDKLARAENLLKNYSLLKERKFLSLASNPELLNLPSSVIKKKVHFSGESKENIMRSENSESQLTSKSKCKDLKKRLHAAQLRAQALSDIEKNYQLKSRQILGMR
Briefly: Inhibition of human NEK2 at 18.6 nM by HotSpot assay relative to control.

The target in experiment [4] is T4, Protein kinase C epsilon type (Homo sapiens) (UniProt Q02156).
T4 sequence (whole entry): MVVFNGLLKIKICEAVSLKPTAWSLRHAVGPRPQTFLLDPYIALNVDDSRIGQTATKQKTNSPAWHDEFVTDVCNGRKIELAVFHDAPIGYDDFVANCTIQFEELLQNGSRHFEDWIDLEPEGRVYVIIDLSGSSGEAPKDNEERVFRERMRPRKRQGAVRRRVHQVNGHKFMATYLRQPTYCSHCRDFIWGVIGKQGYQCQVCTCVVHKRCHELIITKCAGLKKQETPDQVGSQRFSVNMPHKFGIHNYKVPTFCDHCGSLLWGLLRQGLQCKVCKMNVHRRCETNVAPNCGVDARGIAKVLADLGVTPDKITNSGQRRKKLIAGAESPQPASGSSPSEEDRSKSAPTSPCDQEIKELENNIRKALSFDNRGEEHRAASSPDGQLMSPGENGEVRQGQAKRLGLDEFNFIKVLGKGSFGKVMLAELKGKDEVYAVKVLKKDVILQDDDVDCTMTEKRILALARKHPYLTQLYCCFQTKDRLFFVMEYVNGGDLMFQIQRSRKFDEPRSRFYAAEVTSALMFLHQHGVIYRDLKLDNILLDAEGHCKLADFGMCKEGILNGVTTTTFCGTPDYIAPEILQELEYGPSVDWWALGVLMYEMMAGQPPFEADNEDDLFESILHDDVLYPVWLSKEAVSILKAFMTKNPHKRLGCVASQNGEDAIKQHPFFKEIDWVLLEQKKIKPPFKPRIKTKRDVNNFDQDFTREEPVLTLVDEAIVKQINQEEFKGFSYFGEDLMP
The experiment in a line: Inhibition of human PKCepsilon at 18.6 nM by HotSpot assay relative to control.

The target of experiment [5] is Protein kinase C theta type (Homo sapiens) (UniProt Q04759). Briefly: Inhibition of human PKCtheta at 18.6 nM by HotSpot assay relative to control.
Protein kinase C theta type (Homo sapiens), sequence (Q04759 whole entry, looked up): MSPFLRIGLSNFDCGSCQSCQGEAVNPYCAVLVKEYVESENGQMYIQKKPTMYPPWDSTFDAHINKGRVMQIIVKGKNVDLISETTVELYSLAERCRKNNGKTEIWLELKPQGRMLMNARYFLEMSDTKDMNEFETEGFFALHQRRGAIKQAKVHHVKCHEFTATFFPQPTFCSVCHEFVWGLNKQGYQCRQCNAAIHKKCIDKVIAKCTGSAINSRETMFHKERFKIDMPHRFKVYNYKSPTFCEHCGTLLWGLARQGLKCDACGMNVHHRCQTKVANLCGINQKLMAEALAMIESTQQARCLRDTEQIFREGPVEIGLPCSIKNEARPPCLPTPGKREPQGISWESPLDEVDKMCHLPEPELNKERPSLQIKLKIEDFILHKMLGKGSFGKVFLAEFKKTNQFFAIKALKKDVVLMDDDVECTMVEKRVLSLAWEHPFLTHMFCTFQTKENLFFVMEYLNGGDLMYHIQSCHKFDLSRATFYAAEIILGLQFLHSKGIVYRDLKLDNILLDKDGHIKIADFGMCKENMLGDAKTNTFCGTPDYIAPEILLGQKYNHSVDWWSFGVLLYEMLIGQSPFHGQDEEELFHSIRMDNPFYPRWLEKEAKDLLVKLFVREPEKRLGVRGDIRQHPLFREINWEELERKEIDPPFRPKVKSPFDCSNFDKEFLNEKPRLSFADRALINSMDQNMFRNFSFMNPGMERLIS

As usually defined, the inhibition is the change of the read-out against control, counted positive when it falls.

Consider `C[C@@]1(C(=O)Nc2ccc(F)nc2)CCCN1c1nc(Nc2cc(C3CC3)n[nH]2)c2cccn2n1`, for which the inhibition in experiment [1] is -1.49%.

As for `C[C@]1(O)C[C@@H](c2nc(-c3ccc4ccc(-c5ccccc5)nc4c3)c3c(N)nccn32)C1`, the inhibition was 5.16% in experiment [2], 4.82% in experiment [3], -9.61% in experiment [4] and -9.99% in experiment [5].
